Test results taken from ChEMBL document CHEMBL5120920, “A Mitochondria-Targeted Phenylbutyric Acid Prodrug Confers Drastically Improved Anticancer Activities” (J Med Chem, 2022).

Columns and labels:
A-375 [1] = assay: Cytotoxicity against human A-375 cells assessed as reduction in cell vaibility measured at 72 hrs in presence of BNPP by MTT assay; type: functional, cell-based; settings: A-375, 72 h
[2] = Drug uptake in human A-375 cells measured at 10 mins by RP-HPLC-UV analysis; type: ADME, cell-based; settings: a-375, 10 min
A-375 [3] = assay: Induction of apoptosis in human A-375 cells assessed as apoptotic cells at 2.5 uM measured after 48 hrs by Annexin V FITC/PI staining based flow cytometry analysis relative to control; type: functional
A-375 [4] = assay: Induction of cell cycle arrest in human A-375 cells assessed as accumulation at G2 phase at 2.5 uM incubated for 24 hrs by PI staining based flow cytometry analysis (reference value: 7.92 %); type: functional
A-375 [5] = assay: Induction of cell cycle arrest in human A-375 cells assessed as accumulation at G2 phase at 7.5 uM incubated for 24 hrs by PI staining based flow cytometry analysis (reference value: 7.92 %); type: functional

## O=C(CCCCCCCCC[P+](c1ccc(C(F)(F)F)cc1)(c1ccc(C(F)(F)F)cc1)c1ccc(C(F)(F)F)cc1)NC(COC(=O)CCCc1ccccc1)(COC(=O)CCCc1ccccc1)COC(=O)CCCc1ccccc1.[Br-]
A-375 [1]
  IC50: 14.1 µM
[2]
  Drug uptake: Active
A-375 [3]
  Activity: 6%
A-375 [4]
  Activity: 8.58%
A-375 [5]
  Activity: 7.88%
